Assay results as given in patent US6706663B2, “Herbicidal 3-heterocyclic substituted benzisothiazole and benzisoxazole compounds” (Wyeth, priority 2000, dated 2004).

Experiments:
[1] = test system: ZEAMX (Corn, Field); experiment: Preemergence herbicidal evaluation; format: in vivo, Zea mays, L.; conditions: rated 4-5 weeks after treatment
[2] = test system: IPOHE (Ipomoea hederacea); experiment: Postemergence herbicidal evaluation; format: in vivo, (L.) Jacq.; conditions: postemergence
Method in brief: (§1)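 Seedlings grown for about two weeks were sprayed postemergence and then kept under standard greenhouse care. Injury was rated visually 4–5 weeks after treatment on a 0–9 scale against untreated controls, and ratings from repeat tests were averaged.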

[3] = test system: ABUTH (Abutilon theophrasti); experiment: Preemergence herbicidal evaluation; format: in vivo, Medic.; conditions: rated 4-5 weeks after treatment
[4] = test system: GALAP (Galium aparine); experiment: Preemergence herbicidal evaluation; format: in vivo; conditions: rated 4-5 weeks after treatment
Method in brief: (§2)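 Each species was sown separately in potting soil over roughly one inch of soil, and the surface sprayed with compound dissolved in aqueous acetone. Assessment used a 0–9 visual scale against a control after four to five weeks.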

[5] = test system: ECHCG (Echinochloa crus-galli); experiment: Preemergence herbicidal evaluation; format: in vivo, (L.) Beau; conditions: rated 4-5 weeks after treatment
Method in brief: as §2

[6] = test system: SETVI (Setaria viridis); experiment: Preemergence herbicidal evaluation; format: in vivo, (L.) Beau; conditions: rated 4-5 weeks after treatment
Method in brief: as §2

[7] = test system: SETVI (Setaria viridis); experiment: Postemergence herbicidal evaluation; format: in vivo, (L.) Beau; conditions: postemergence
Method in brief: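 Ratings use a 0-9 visual scale covering stand, vigor, malformation, size, chlorosis and appearance versus a control, scored 4-5 weeks post-spray. Roughly two-week-old seedlings received about 0.0040-1.000 kg/ha active, applied in 50/50 acetone/water with 0.5% TWEEN 20. Multiple tests per compound were averaged.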

[8] = test system: GALAP (Galium aparine); experiment: Postemergence herbicidal evaluation; format: in vivo; conditions: postemergence
Method in brief: as §1

[9] = test system: GLXMAW (Soybean, Williams); experiment: Postemergence herbicidal evaluation; format: in vivo, Glycine max, (L.) Merr. cv Williams; conditions: postemergence
Method in brief: as §1

[10] = test system: ABUTH (Abutilon theophrasti); experiment: Postemergence herbicidal evaluation; format: in vivo, Medic.; conditions: postemergence
Method in brief: as §1

[11] = test system: ORYSAT (Rice, Tebonnet); experiment: Flooded paddy, post-transplant rice tolerance; format: in vivo, Oryza sativa, (L.) Tebonnet; conditions: flooded paddy, post-transplant rice, rated 3-4 weeks after treatment, 0-9 rating scale
Method in brief: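 Steps: transplant two ten-day-old seedlings into silt loam; flood to 1.5-3 cm above soil; apply herbicide post-transplant; maintain water on greenhouse benches; rate stand, vigor, malformation, size and chlorosis on a 0-9 visual scale versus control.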

[12] = test system: MOOVA (Monochoria vaginalis); experiment: Flooded paddy, preemergence weed control; format: in vivo, Presl.; conditions: rated 3-4 weeks after treatment, 0-9 rating scale
Method in brief: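 Under paddy conditions, seeds or vegetative propagules go into the top 0.5 cm of silt loam; the soil is then flooded to 1.5–3 cm and kept so. Treated pots stay in a greenhouse; response is rated 0-9 visually versus control.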

[13] = test system: AMBEL (Ambrosia artemisifolia); experiment: Preemergence herbicidal evaluation; format: in vivo, L.; conditions: rated 4-5 weeks after treatment
Method in brief: as §2

[14] = test system: CHEAL (Chenopodium album); experiment: Preemergence herbicidal evaluation; format: in vivo, L.; conditions: rated 4-5 weeks after treatment
Method in brief: as §2

[15] = test system: CASOB (Cassia obtusifolia); experiment: Preemergence herbicidal evaluation; format: in vivo, L.; conditions: rated 4-5 weeks after treatment
Method in brief: as §2

[16] = test system: TRZAWR (Wheat, Winter, cv Riband); experiment: Postemergence herbicidal evaluation; format: in vivo, Triticum aestivum; conditions: postemergence
Method in brief: as §1

[17] = preemergence, rate 0.0620 kg/ha
[18] = preemergence, rate 0.1250 kg/ha
[19] = preemergence, rate 0.2500 kg/ha

SMILES: Cn1c(C(F)(F)F)cc(=O)n(-c2ccc3snc(C4OCC(c5ccccc5)O4)c3c2)c1=O (stereo not shown) [Compound 78, 1-methyl-3-[3-(4-phenyl-1,3-dioxolan-2-yl)-1,2-benzisothiazol-5-yl]-6-(trifluoromethyl)uracil]
- Preemergence herbicidal rating ZEAMX ([1]; Rate 0.0620 kg/ha): 3.0
- Preemergence herbicidal rating ZEAMX ([1]; Rate 0.1250 kg/ha): 3.5
- Preemergence herbicidal rating ZEAMX ([1]; Rate 0.2500 kg/ha): 6.0
- IPOHE herbicidal rating ([2]; rate 0.0320 kg/ha): 9.0
- IPOHE herbicidal rating ([2]; rate 0.0620 kg/ha): 9.0
- Preemergence herbicidal rating ABUTH ([3]; Rate 0.0620 kg/ha): 9.0
- Preemergence herbicidal rating ABUTH ([3]; Rate 0.1250 kg/ha): 9.0
- Preemergence herbicidal rating ABUTH ([3]; Rate 0.2500 kg/ha): 9.0
- Preemergence herbicidal rating GALAP ([4]; Rate 0.0620 kg/ha): 7.0
- Preemergence herbicidal rating GALAP ([4]; Rate 0.1250 kg/ha): 7.0
- Preemergence herbicidal rating GALAP ([4]; Rate 0.2500 kg/ha): 7.0
- Preemergence herbicidal rating ECHCG ([5]; Rate 0.0620 kg/ha): 8.5
- Preemergence herbicidal rating ECHCG ([5]; Rate 0.1250 kg/ha): 9.0
- Preemergence herbicidal rating ECHCG ([5]; Rate 0.2500 kg/ha): 8.0
- Preemergence herbicidal rating SETVI ([6]; Rate 0.0620 kg/ha): 9.0
- Preemergence herbicidal rating SETVI ([6]; Rate 0.1250 kg/ha): 9.0
- Preemergence herbicidal rating SETVI ([6]; Rate 0.2500 kg/ha): 9.0
- SETVI herbicidal rating ([7]; rate 0.0320 kg/ha): 7.0
- SETVI herbicidal rating ([7]; rate 0.0620 kg/ha): 9.0
- GALAP herbicidal rating ([8]; rate 0.0320 kg/ha): 4.0
- GALAP herbicidal rating ([8]; rate 0.0620 kg/ha): 7.0
- GLXMAW herbicidal rating ([9]; rate 0.0320 kg/ha): 5.0
- GLXMAW herbicidal rating ([9]; rate 0.0620 kg/ha): 5.5
- ABUTH herbicidal rating ([10]; rate 0.0320 kg/ha): 9.0
- ABUTH herbicidal rating ([10]; rate 0.0620 kg/ha): 9.0
- herbicidal rating, ORYSAT (rice tolerance) ([11]; rate 0.0080 kg/ha): 4.0
- herbicidal rating, ORYSAT (rice tolerance) ([11]; rate 0.0320 kg/ha): 5.7
- herbicidal rating, ORYSAT (rice tolerance) ([11]; rate 0.1250 kg/ha): 8.5
- herbicidal rating, MOOVA ([12]; rate 0.0080 kg/ha): 7.7
- herbicidal rating, MOOVA ([12]; rate 0.0320 kg/ha): 9.0
- herbicidal rating, MOOVA ([12]; rate 0.1250 kg/ha): 9.0
- Preemergence herbicidal rating AMBEL ([13]; Rate 0.0620 kg/ha): 9.0
- Preemergence herbicidal rating AMBEL ([13]; Rate 0.1250 kg/ha): 9.0
- Preemergence herbicidal rating AMBEL ([13]; Rate 0.2500 kg/ha): 9.0
- Preemergence herbicidal rating CHEAL ([14]; Rate 0.0620 kg/ha): 9.0
- Preemergence herbicidal rating CHEAL ([14]; Rate 0.1250 kg/ha): 9.0
- Preemergence herbicidal rating CHEAL ([14]; Rate 0.2500 kg/ha): 9.0
- Preemergence herbicidal rating CASOB ([15]; Rate 0.0620 kg/ha): 2.0
- Preemergence herbicidal rating CASOB ([15]; Rate 0.1250 kg/ha): 4.0
- Preemergence herbicidal rating CASOB ([15]; Rate 0.2500 kg/ha): 6.0
- TRZAWR herbicidal rating ([16]; rate 0.0320 kg/ha): 3.5
- TRZAWR herbicidal rating ([16]; rate 0.0620 kg/ha): 5.0

SMILES: Cn1c(C(F)(F)F)cc(=O)n(-c2ccc3snc(-c4sccc4CBr)c3c2)c1=O [Compound 80, 3-[3-[3-(bromomethyl)-2-thienyl]-1,2-benzisothiazol-5-yl]-1-methyl-6-(trifluoromethyl)uracil]
- Preemergence herbicidal rating ZEAMX ([1]; Rate 0.0620 kg/ha): 0.5
- Preemergence herbicidal rating ZEAMX ([1]; Rate 0.1250 kg/ha): 1.5
- Preemergence herbicidal rating ZEAMX ([1]; Rate 0.2500 kg/ha): 2.5
- IPOHE herbicidal rating ([2]; rate 0.0320 kg/ha): 9.0
- IPOHE herbicidal rating ([2]; rate 0.0620 kg/ha): 9.0
- Preemergence herbicidal rating ABUTH ([3]; Rate 0.0620 kg/ha): 4.0
- Preemergence herbicidal rating ABUTH ([3]; Rate 0.1250 kg/ha): 9.0
- Preemergence herbicidal rating ABUTH ([3]; Rate 0.2500 kg/ha): 9.0
- Preemergence herbicidal rating GALAP ([4]; Rate 0.0620 kg/ha): 4.0
- Preemergence herbicidal rating GALAP ([4]; Rate 0.1250 kg/ha): 5.0
- Preemergence herbicidal rating GALAP ([4]; Rate 0.2500 kg/ha): 7.0
- Preemergence herbicidal rating ECHCG ([5]; Rate 0.0620 kg/ha): 0.5
- Preemergence herbicidal rating ECHCG ([5]; Rate 0.1250 kg/ha): 2.0
- Preemergence herbicidal rating ECHCG ([5]; Rate 0.2500 kg/ha): 6.5
- Preemergence herbicidal rating SETVI ([6]; Rate 0.0620 kg/ha): 1.5
- Preemergence herbicidal rating SETVI ([6]; Rate 0.1250 kg/ha): 4.5
- Preemergence herbicidal rating SETVI ([6]; Rate 0.2500 kg/ha): 7.5
- SETVI herbicidal rating ([7]; rate 0.0320 kg/ha): 2.0
- SETVI herbicidal rating ([7]; rate 0.0620 kg/ha): 3.0
- GALAP herbicidal rating ([8]; rate 0.0320 kg/ha): 3.0
- GALAP herbicidal rating ([8]; rate 0.0620 kg/ha): 4.0
- GLXMAW herbicidal rating ([9]; rate 0.0320 kg/ha): 5.0
- GLXMAW herbicidal rating ([9]; rate 0.0620 kg/ha): 7.0
- ABUTH herbicidal rating ([10]; rate 0.0320 kg/ha): 6.0
- ABUTH herbicidal rating ([10]; rate 0.0620 kg/ha): 9.0
- herbicidal rating, ORYSAT (rice tolerance) ([11]; rate 0.0080 kg/ha): 2.5
- herbicidal rating, ORYSAT (rice tolerance) ([11]; rate 0.0320 kg/ha): 5.5
- herbicidal rating, ORYSAT (rice tolerance) ([11]; rate 0.1250 kg/ha): 8.0
- herbicidal rating, MOOVA ([12]; rate 0.0080 kg/ha): 0.0
- herbicidal rating, MOOVA ([12]; rate 0.0320 kg/ha): 9.0
- herbicidal rating, MOOVA ([12]; rate 0.1250 kg/ha): 9.0
- Preemergence herbicidal rating AMBEL ([13]; Rate 0.0620 kg/ha): 5.0
- Preemergence herbicidal rating AMBEL ([13]; Rate 0.1250 kg/ha): 9.0
- Preemergence herbicidal rating AMBEL ([13]; Rate 0.2500 kg/ha): 9.0
- Preemergence herbicidal rating CHEAL ([14]; Rate 0.0620 kg/ha): 5.5
- Preemergence herbicidal rating CHEAL ([14]; Rate 0.1250 kg/ha): 7.5
- Preemergence herbicidal rating CHEAL ([14]; Rate 0.2500 kg/ha): 9.0
- Preemergence herbicidal rating CASOB ([15]; Rate 0.0620 kg/ha): 0.0
- Preemergence herbicidal rating CASOB ([15]; Rate 0.1250 kg/ha): 0.0
- Preemergence herbicidal rating CASOB ([15]; Rate 0.2500 kg/ha): 1.5
- TRZAWR herbicidal rating ([16]; rate 0.0320 kg/ha): 3.0
- TRZAWR herbicidal rating ([16]; rate 0.0620 kg/ha): 3.5

SMILES: Cn1c(C(F)(F)F)cc(=O)n(-c2ccc3snc(-c4ccoc4)c3c2)c1=O [Compound 83, 3-[3-(3-furyl)-1,2-benzisothiazol-5-yl]-1-methyl-6-(trifluoromethyl)uracil]
- Preemergence herbicidal rating ZEAMX [1, 17]: 3.0
- Preemergence herbicidal rating ZEAMX [1, 18]: 5.0
- Preemergence herbicidal rating ZEAMX [1, 19]: 6.0
- IPOHE herbicidal rating ([2]; rate 0.0320 kg/ha): 2.0
- IPOHE herbicidal rating ([2]; rate 0.0620 kg/ha): 4.0
- Preemergence herbicidal rating ABUTH [3, 17]: 2.0
- Preemergence herbicidal rating ABUTH [3, 18]: 7.5
- Preemergence herbicidal rating ABUTH [3, 19]: 9.0
- Preemergence herbicidal rating GALAP [4, 18]: 4.0
- Preemergence herbicidal rating ECHCG [5, 17]: 2.0
- Preemergence herbicidal rating ECHCG [5, 18]: 6.5
- Preemergence herbicidal rating ECHCG [5, 19]: 9.0
- Preemergence herbicidal rating SETVI [6, 17]: 6.0
- Preemergence herbicidal rating SETVI [6, 18]: 9.0
- Preemergence herbicidal rating SETVI [6, 19]: 9.0
- SETVI herbicidal rating ([7]; rate 0.0320 kg/ha): 3.0
- SETVI herbicidal rating ([7]; rate 0.0620 kg/ha): 4.0
- GALAP herbicidal rating ([8]; rate 0.0320 kg/ha): 2.0
- GALAP herbicidal rating ([8]; rate 0.0620 kg/ha): 3.0
- GLXMAW herbicidal rating ([9]; rate 0.0320 kg/ha): 4.0
- GLXMAW herbicidal rating ([9]; rate 0.0620 kg/ha): 6.0
- ABUTH herbicidal rating ([10]; rate 0.0320 kg/ha): 6.0
- ABUTH herbicidal rating ([10]; rate 0.0620 kg/ha): 9.0
- herbicidal rating, ORYSAT (rice tolerance) ([11]; rate 0.0080 kg/ha): 0.0
- herbicidal rating, ORYSAT (rice tolerance) ([11]; rate 0.0320 kg/ha): 2.0
- herbicidal rating, ORYSAT (rice tolerance) ([11]; rate 0.1250 kg/ha): 2.0
- herbicidal rating, MOOVA ([12]; rate 0.0080 kg/ha): 0.0
- herbicidal rating, MOOVA ([12]; rate 0.0320 kg/ha): 9.0
- herbicidal rating, MOOVA ([12]; rate 0.1250 kg/ha): 9.0
- Preemergence herbicidal rating AMBEL [13, 17]: 6.0
- Preemergence herbicidal rating AMBEL [13, 18]: 7.5
- Preemergence herbicidal rating AMBEL [13, 19]: 9.0
- Preemergence herbicidal rating CHEAL [14, 17]: 4.0
- Preemergence herbicidal rating CHEAL [14, 18]: 9.0
- Preemergence herbicidal rating CHEAL [14, 19]: 9.0
- Preemergence herbicidal rating CASOB [15, 17]: 0.0
- Preemergence herbicidal rating CASOB [15, 18]: 0.0
- Preemergence herbicidal rating CASOB [15, 19]: 1.0
- TRZAWR herbicidal rating ([16]; rate 0.0320 kg/ha): 2.0
- TRZAWR herbicidal rating ([16]; rate 0.0620 kg/ha): 3.0
